This is an account of results in patent US10053463B2 (Janssen Pharmaceutica NV, priority 2013, dated 2018).

P2X7, sequence (Q99572 whole entry): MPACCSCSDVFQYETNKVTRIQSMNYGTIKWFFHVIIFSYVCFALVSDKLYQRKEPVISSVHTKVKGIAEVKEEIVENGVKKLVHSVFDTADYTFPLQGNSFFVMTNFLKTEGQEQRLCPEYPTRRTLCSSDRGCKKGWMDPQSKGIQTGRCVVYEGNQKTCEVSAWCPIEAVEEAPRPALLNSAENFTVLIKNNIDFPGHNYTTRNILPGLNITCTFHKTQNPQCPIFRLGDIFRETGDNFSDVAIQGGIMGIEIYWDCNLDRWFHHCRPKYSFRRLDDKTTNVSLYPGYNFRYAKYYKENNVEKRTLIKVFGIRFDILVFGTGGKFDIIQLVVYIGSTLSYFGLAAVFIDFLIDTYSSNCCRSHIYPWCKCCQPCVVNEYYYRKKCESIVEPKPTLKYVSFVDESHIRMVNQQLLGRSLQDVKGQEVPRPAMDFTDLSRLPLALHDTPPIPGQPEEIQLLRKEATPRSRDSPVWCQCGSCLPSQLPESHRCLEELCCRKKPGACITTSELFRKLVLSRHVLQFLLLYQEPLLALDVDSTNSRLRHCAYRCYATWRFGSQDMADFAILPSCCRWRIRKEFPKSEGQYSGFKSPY

The first test has as its target P2X7 (Homo sapiens (Human), UniProt Q99572). Description: P2X7 antagonism in human peripheral blood mononuclear cells (PBMCs), IL-1β release. The test is classed as cell-based. The conditions noted are these: P2X7; Table 3 (additional runs); 10 μM compound; read-out: PBMC 10 μM (% control). The protocol: P2X7 Antagonism in Human Peripheral Blood Mononuclear Cells (PBMCs) and Human Whole Blood.
Human blood was collected using a blood donor program. PBMCs were isolated from blood using a Ficoll density gradient technique. Briefly, blood was laid on Ficoll solution and centrifuged at RT for 20 minutes at 2000 rpm. The buffy layer (between red blood cells and plasma) was carefully collected by aspiration, washed with PBS and centrifuged again at 1500 rpm for 15 minutes. The resulting cell pellet was washed and plated on 96 well-plates for experiments. For the Human Whole Blood experiments, 150 μl of human blood was platted on 96 well-plates. Lipopolysaccharide (LPS) (30 ng/ml) was added to each well and incubated for 1 hour. Test compounds were then added and incubated for 30 minutes. The P2X7 agonist, 2′(3′)-O-(4-benzoylbenzoyl) adenosine 5′-triphosphate (Bz-ATP) was then added at a final concentration of 0.5 mM (PBMC) or 1 mM (blood). Cells were incubated for an additional 1.5 hours. At that point, supernatant was collected and stored for IL-1β assay using manufacturer's protocol for enzyme-linked immunosorbent assay (ELISA). Data was expressed as percent control, where control is defined as the difference in IL-1β release in LPS+Bz-ATP samples and LPS only samples. Data was plotted as response (% control) versus concentration to generate IC50 values. […] Data are analyzed and graphed on Graphpad Prism 5. For analysis, each concentration point is averaged from triplicate values and the averaged values are plotted on Graphpad Prism.
As for `CC(c1cccc(C(F)(F)F)c1Cl)N1CCn2c(nnc2-c2cnccn2)C1=O` (racemic) [Example 4, (±)7-{1-[2-Chloro-3-(trifluoromethyl)phenyl]ethyl}-3-pyrazin-2-yl-6,7-dihydro[1,2,4]triazolo[4,3-a]pyrazin-8(5H)-one], the remaining activity at 10 µM came to 46%.
Same read-out and setting: for `CC1Cn2c(nnc2-c2cnccn2)C(=O)N1Cc1cccc(Cl)c1Cl` (racemic) [Example 11, (±)-7-(2,3-Dichlorobenzyl)-6-methyl-3-pyrazin-2-yl-6,7-dihydro[1,2,4]triazolo[4,3-a]pyrazin-8(5H)-one] the value was -0.4%.
On the same count and under the same terms, the value for `CC1Cn2c(nnc2-c2cnccn2)C(=O)N1Cc1cccc(C(F)(F)F)c1Cl` (racemic) [Example 14, (±)-7-[2-Chloro-3-(trifluoromethyl)benzyl]-6-methyl-3-pyrazin-2-yl-6,7-dihydro[1,2,4]triazolo[4,3-a]pyrazin-8(5H)-one] was 2.5%.
On the same count and under the same terms, the value for `O=C1c2nnc(-c3cnccn3)n2CC(C2CC2)N1Cc1cccc(C(F)(F)F)c1Cl` (racemic) [Example 61, (±)-7-[2-Chloro-3-(trifluoromethyl)benzyl]-6-cyclopropyl-3-pyrazin-2-yl-6,7-dihydro[1,2,4]triazolo[4,3-a]pyrazin-8(5H)-one] was -1%; that for `O=C1c2nnc(-c3ncccn3)n2CC(C2CC2)N1Cc1cccc(C(F)(F)F)c1Cl` (racemic) [Example 64, (±)-7-[2-Chloro-3-(trifluoromethyl)benzyl]-6-cyclopropyl-3-pyrimidin-2-yl-6,7-dihydro[1,2,4]triazolo[4,3-a]pyrazin-8(5H)-one] was -0.4%; that for `O=C1c2nnc(-c3cccnc3)n2CC(C2CC2)N1Cc1cccc(C(F)(F)F)c1Cl` (racemic) [Example 67, (±)-7-[2-Chloro-3-(trifluoromethyl)benzyl]-6-cyclopropyl-3-pyridin-3-yl-6,7-dihydro[1,2,4]triazolo[4,3-a]pyrazin-8(5H)-one] was 6.9%.
Regarding `O=C1c2nnc(-c3cc[nH]n3)n2CC(C2CC2)N1Cc1cccc(C(F)(F)F)c1Cl` (racemic) [Example 68, (±)-7-[2-Chloro-3-(trifluoromethyl)benzyl]-6-cyclopropyl-3-(1H-pyrazol-3-yl)-6,7-dihydro[1,2,4]triazolo[4,3-a]pyrazin-8(5H)-one], the remaining activity at 10 µM turned out to be 1.6%.
Same read-out and setting: the value for `O=C1c2nnc(-c3ccc(F)cn3)n2CC(C2CC2)N1Cc1cccc(C(F)(F)F)c1Cl` (racemic) [Example 69, (±)-7-[2-Chloro-3-(trifluoromethyl)benzyl]-6-cyclopropyl-3-(5-fluoropyridin-2-yl)-6,7-dihydro[1,2,4]triazolo[4,3-a]pyrazin-8(5H)-one] was 20.8%; that for `O=C1c2nnc(-c3ncc(F)cn3)n2CC(C2CC2)N1Cc1cccc(C(F)(F)F)c1Cl` (racemic) [Example 70, (±)-7-[2-Chloro-3-(trifluoromethyl)benzyl]-6-cyclopropyl-3-(5-fluoropyrimidin-2-yl)-6,7-dihydro[1,2,4]triazolo[4,3-a]pyrazin-8(5H)-one] was 9.1%; that for `C[C@H](c1ccccc1)N1C(=O)c2nnc(-c3cnccn3)n2C[C@@H]1C` (relative stereo) [Example 94, (6S)-6-Methyl-7[(1R*)-1-phenylethyl]-3-pyrazin-2-yl-6,7-dihydro[1,2,4]triazolo[4,3-a]pyrazin-8(5H)-one] was -1.3%.
Still for that read-out and setting: the value for `C[C@H]1Cn2c(nnc2-c2cnccn2)C(=O)N1[C@@H](C)c1ccccc1` (relative stereo) [Example 95, (6S)-6-Methyl-7-[(1S*)-1-phenylethyl]-3-pyrazin-2-yl-6,7-dihydro[1,2,4]triazolo[4,3-a]pyrazin-8(5H)-one] was 3.1%; that for `O=C1c2nnc(-c3ccc(F)cc3)n2CCN1Cc1cccc(C(F)(F)F)c1Cl` [Example 1, 7-[2-Chloro-3-(trifluoromethyl)benzyl]-3-(4-fluorophenyl)-6,7-dihydro[1,2,4]triazolo[4,3-a]pyrazin-8(5H)-one] was 25.4%; that for `O=C1c2nnc(-c3cnccn3)n2CCN1Cc1c(Cl)cccc1Cl` [Example 5, 7-(2,6-Dichlorobenzyl)-3-pyrazin-2-yl-6,7-dihydro[1,2,4]triazolo[4,3-a]pyrazin-8(5H)-one] was 8.8%.
On the same count and under the same terms, for `O=C1c2nnc(-c3cnccn3)n2CCN1Cc1cccc(F)c1F` [Example 6, 7-(2,3-Difluorobenzyl)-3-pyrazin-2-yl-6,7-dihydro[1,2,4]triazolo[4,3-a]pyrazin-8(5H)-one] the value was 23.7%; for `CS(=O)(=O)c1cc(Cl)ccc1CN1CCn2c(nnc2-c2cnccn2)C1=O` [Example 7, 7-[4-Chloro-2-(methylsulfonyl)benzyl]-3-pyrazin-2-yl-6,7-dihydro[1,2,4]triazolo[4,3-a]pyrazin-8(5H)-one], 8.8%; for `O=C1c2nnc(-c3ccccn3)n2CCN1Cc1cccc(Cl)c1Cl` [Example 8, 7-(2,3-Dichlorobenzyl)-3-pyridin-2-yl-6,7-dihydro[1,2,4]triazolo[4,3-a]pyrazin-8(5H)-one], -10.6%.
Regarding `O=C1c2nnc(-c3ccccn3)n2CCN1Cc1cccc(C(F)(F)F)c1Cl` [Example 9, 7-[2-Chloro-3-(trifluoromethyl)benzyl]-3-pyridin-2-yl-6,7-dihydro[1,2,4]triazolo[4,3-a]pyrazin-8(5H)-one], the remaining activity at 10 µM is -3.1%.
`Cc1c(CN2CCn3c(nnc3-c3ccccn3)C2=O)cccc1C(F)(F)F` [Example 10, 7-[2-Methyl-3-(trifluoromethyl)benzyl]-3-pyridin-2-yl-6,7-dihydro[1,2,4]triazolo[4,3-a]pyrazin-8(5H)-one]: the remaining activity at 10 µM turned out to be 59.3%.
Still for that read-out and setting: the value for `C[C@H]1Cn2c(nnc2-c2cnccn2)C(=O)N1Cc1cccc(Cl)c1Cl` [Example 13, (6S)-7-(2,3-Dichlorobenzyl)-6-methyl-3-pyrazin-2-yl-6,7-dihydro[1,2,4]triazolo[4,3-a]pyrazin-8(5H)-one] was 8.2%.
As for `C[C@@H]1Cn2c(nnc2-c2cnccn2)C(=O)N1Cc1cccc(C(F)(F)F)c1Cl` [Example 15, (6R)-7-[2-Chloro-3-(trifluoromethyl)benzyl]-6-methyl-3-pyrazin-2-yl-6,7-dihydro[1,2,4]triazolo[4,3-a]pyrazin-8(5H)-one], the remaining activity at 10 µM came to 4.1%.
Same read-out and setting: the value for `C[C@H]1Cn2c(nnc2-c2cnccn2)C(=O)N1Cc1cccc(C(F)(F)F)c1Cl` [Example 16, (6S)-7-[2-Chloro-3-(trifluoromethyl)benzyl]-6-methyl-3-pyrazin-2-yl-6,7-dihydro[1,2,4]triazolo[4,3-a]pyrazin-8(5H)-one] was 8.4%.

Still in this test, the particulars now being: Table 2; 10 μM compound; IL-1β release, LPS + 0.5 mM Bz-ATP.
As for `C[C@H]1Cn2c(nnc2-c2cnccn2)C(=O)N1Cc1cccc(Cl)c1Cl` [Example 13, (6S)-7-(2,3-Dichlorobenzyl)-6-methyl-3-pyrazin-2-yl-6,7-dihydro[1,2,4]triazolo[4,3-a]pyrazin-8(5H)-one], the “PBMC 10 μM (% control)” value came to 15.4 % control.
Regarding `C[C@H]1Cn2c(nnc2-c2cnccn2)C(=O)N1Cc1cccc(C(F)(F)F)c1Cl` [Example 16, (6S)-7-[2-Chloro-3-(trifluoromethyl)benzyl]-6-methyl-3-pyrazin-2-yl-6,7-dihydro[1,2,4]triazolo[4,3-a]pyrazin-8(5H)-one], the “PBMC 10 μM (% control)” value came to 13.4 % control.

Still in this test, the particulars now being: Table 3 (additional runs); 1 μM compound.
As for `O=C1c2nnc(-c3cnccn3)n2CCN1Cc1cccc(C(F)(F)F)c1Cl` [Example 3, 7-[2-Chloro-3-(trifluoromethyl)benzyl]-3-pyrazin-2-yl-6,7-dihydro[1,2,4]triazolo[4,3-a]pyrazin-8(5H)-one], the “PBMC 1 μM (% control)” value is reported as −0.6 % control.
